Assay results: article PMC7397659, “Pseudonajide peptide derived from snake venom alters cell envelope integrity interfering on biofilm formation in Staphylococcus epidermidis” (BMC Microbiology, 2020)
Where no end group is shown, it is not given here.

What was measured:
[1] = test system: S. epidermidis ATCC 35984; assay: Antibiofilm formation test, crystal violet protocol; format: cell-based, Staphylococcus epidermidis; conditions: 100 μM peptide, 24 h exposure, crystal violet OD570, at least 3 biological replicates
Method: S. epidermidis ATCC 35984 and Pseudomonas aeruginosa PAO1 were used to test the antimicrobial and antibiofilm activities of the peptides. Both bacteria were grown in blood agar plates and cultured overnight at 37 °C. Cell suspensions were prepared in a solution of 0.9% NaCl and adjusted to OD600 for a final concentration of ~ 10^8 cells/ml. For microscopy analysis, pre-inoculum was made in tryptic soy broth (TSB, Merck), and adjusted to OD600 for the same concentration of cells for all tests.
Serial dilution of peptides was performed in 96-well plates, going from 100 to 3.12 μM. Cell suspensions and TSB were added to the plates and a control was made with dimethyl sulfoxide (DMSO). Antibiofilm formation tests were performed with an adapted protocol, in which it is described that 24 h of incubation is sufficient to determinate antibiofilm activity. The OD600 was measured, then biofilm content accessed using the crystal violet protocol. Biofilm eradication test was performed supplementing 24 h pre-formed biofilm with a new culture broth, containing or not 25 μM of peptide. The plates were incubated for further 24 h followed by crystal violet protocol. The antimicrobial activity of pseudonajide was analyzed using a concentration of 25 μM after 1, 2, 4, and 24 h incubation. After measuring the optical density, the supernatant was collected and diluted. […] CFUs were counted after 24 h incubation. […]

[2] = test system: PC3 (prostatic adenocarcinoma); assay: Cytotoxicity test, ImPACcell platform; format: cell-based, human; conditions: 25 μM, 24 h
Method: (§1) Cytotoxicity tests were performed on the ImPACcell robotic platform (BIOSIT, Université de Rennes 1). This featured high-throughput multiparameter image analysis, with both high-content screening and high-content analysis. The platform is equipped with an Olympus microscope and Compix SimplePCI software; a Zeiss Axio Imager M1 microscope with a Zeiss camera and AxioVision software; and imaging systems including an ArrayScan VTI Cellomics reader (Thermo Fisher), Hamilton STARlet and NIMBUS workstations, and a Scienion spotter. Cells used in the test were obtained from an already-existing collection available at BIOSIT (https://biosit.univ-rennes1.fr/impaccell-imagerie-pour-analyse-du-contenu-cellulaire). For the tests, seven different cell lines were used: human hepatocellular carcinoma (HuH7); colorectal adenocarcinoma (Caco-2); breast adenocarcinoma (MDA-MB231); colorectal carcinoma (HCT116); prostatic adenocarcinoma (PC3); lung carcinoma (NCL-H727); and breast cancer (MCF7). The residual cell percentages reported correspond to viable cells compared to the average viable cells in the DMSO control. Viability of 100% represents no cytotoxicity or inhibition of cell growth, while under 25–30% is considered cytotoxic and 0% represents acute cytotoxicity.

[3] = test system: HuH7 (hepatocellular carcinoma); assay: Cytotoxicity test, ImPACcell platform; format: cell-based, human; conditions: 25 μM, 24 h
Method: as §1

[4] = test system: HCT116 (colorectal carcinoma); assay: Cytotoxicity test, ImPACcell platform; format: cell-based, human; conditions: 25 μM, 24 h
Method: as §1

[5] = test system: Caco-2 (colorectal adenocarcinoma); assay: Cytotoxicity test, ImPACcell platform; format: cell-based, human; conditions: 25 μM, 24 h
Method: as §1

[6] = test system: MDA-MB231 (breast adenocarcinoma); assay: Cytotoxicity test, ImPACcell platform; format: cell-based, human; conditions: 25 μM, 24 h
Method: as §1

[7] = test system: NCL-H727 (lung carcinoma); assay: Cytotoxicity test, ImPACcell platform; format: cell-based, human; conditions: 25 μM, 24 h
Method: as §1

[8] = test system: MCF7 (breast cancer); assay: Cytotoxicity test, ImPACcell platform; format: cell-based, human; conditions: 25 μM, 24 h
Method: as §1

Sequence: KRFKKFFKKLK [Peptide 3]
- reduction of biofilm mass [1]: 78%

Sequence: KRFKKFFKKVK [Peptide 1]
- reduction of biofilm mass [1]: 77%

Sequence: KRFKKFFMKLK [Peptide 2]
- live cell counts compared to control [2]: no decrease in live cell counts
- live cell counts compared to control [3]: no decrease in live cell counts
- live cell counts compared to control [4]: no decrease in live cell counts
- live cell counts compared to control [5]: no decrease in live cell counts
- live cell counts compared to control [6]: no decrease in live cell counts
- live cell counts compared to control [7]: no decrease in live cell counts
- live cell counts compared to control [8]: no decrease in live cell counts
